Consider 10 molecules from article PMC5634478, “Usefulness of kidney slices for functional analysis of apical reabsorptive transporters” (Scientific Reports, 2017).

Data set [1] relates to Sglt1/2. Kind of data set: Uptake of [14C]αMG by mice kidney slices. The format is in vitro ADME. To be noted: for effect on [14C]αMG uptake by kidney slices, inhibitor alone: 30 mM galactose, D-glucose free. On the procedure: (§1) Uptake studies using mouse kidney slices were carried out as described in a previous report after slight modifications. The slices of whole kidneys were prepared with a microslicer (Zero 1; Dosaka EM, Kyoto, Japan), and the renal pelvis portion was removed. Prepared slices (0.3 mm thick) of whole kidneys from male mice were immediately put in ice-cold oxygenated transport buffer (130 mM NaCl, 4.8 mM KCl, 1.2 mM CaCl2, 1.2 mM MgSO4, 1.2 mM KH2PO4 and 25 mM HEPES, adjusted to pH 7.4). When uptake was conducted in Na^+-free condition, NaCl was replaced with N-methyl-D-glucamine (NMG) in transport buffer. Three or four slices from one mouse, weighing each slice 2 to 10 mg, were randomly selected and then pre-incubated in a 24-well plate with 1.0 ml of oxygenated transport buffer in each well at 37 °C for 5 min. After pre-incubation, the kidney slices were put into transport buffer containing radiolabeled substrates with or without inhibitors to initiate the uptake reaction. The uptake reactions were carried out at 37 °C for an appropriate time, and then each slice was rapidly removed from the transport buffer, washed twice in ice-cold transport buffer, blotted on filter paper and weighed. For measurement of radiolabeled compounds, the slices were dissolved in 0.15 ml of 1 N NaOH. Then, the lysate was neutralized with HCl. The apparent uptake of [^14C]inulin was evaluated in independent experiments (n = 3) to estimate the volume of water adhering to the kidney slices after an incubation. […] Viability of the isolated kidney slices was assessed as described in the supplemental file.
(§2) The half-inhibitory concentration (IC 50) values of inhibitors were obtained by examining their inhibitory effects on uptake of test substrates according to the following equation (2):2 %ofcontrol=IC50/(IC50+I) where % of control represents inhibition rate in the presence of inhibitors and I is inhibitor concentration.

Data set [2] concerns Sglt2. Also noted: method as in PMID 22139434. To be noted: cited from earlier work.
Data set [3] addresses T1, Mouse Octn2 (Mus musculus, UniProt Q9Z0E8).
T1 construct: expressed in transfected cells; host or cells: HEK293
T1 sequence (Q9Z0E8 1-557): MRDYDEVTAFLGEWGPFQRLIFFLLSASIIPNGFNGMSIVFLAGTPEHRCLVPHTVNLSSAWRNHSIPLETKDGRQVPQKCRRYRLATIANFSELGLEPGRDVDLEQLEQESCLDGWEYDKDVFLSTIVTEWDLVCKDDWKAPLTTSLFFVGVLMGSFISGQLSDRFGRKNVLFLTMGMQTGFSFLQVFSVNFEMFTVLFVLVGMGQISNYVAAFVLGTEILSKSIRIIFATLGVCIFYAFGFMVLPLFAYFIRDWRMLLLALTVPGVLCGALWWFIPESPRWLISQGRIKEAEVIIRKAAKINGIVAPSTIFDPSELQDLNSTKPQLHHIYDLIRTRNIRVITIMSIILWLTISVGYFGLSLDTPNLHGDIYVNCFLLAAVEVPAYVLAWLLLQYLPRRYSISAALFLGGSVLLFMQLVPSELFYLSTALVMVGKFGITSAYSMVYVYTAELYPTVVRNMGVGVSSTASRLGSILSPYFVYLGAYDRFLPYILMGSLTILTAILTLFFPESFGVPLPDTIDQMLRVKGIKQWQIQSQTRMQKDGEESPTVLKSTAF
Kind of data set: Uptake of [3H]carnitine by Octn2-expressing HEK293 cells. The format is cell-based. To be noted: [3H]carnitine 1.0 μM, 15 sec, mock subtracted, read-out: IC 50 for carnitine uptake, Expression Model.

The target in data set [4] is T2, Octn2 (Mus musculus, UniProt Q9Z0E8).
T2 construct: from tissue; host or cells: mouse kidney slices (male ICR mice)
T2 sequence (Q9Z0E8 1-557): T1 sequence (Q9Z0E8 1-557)
Briefly: Uptake of [3H]carnitine by mice kidney slices. In kind it is in vitro ADME. As for the experimental part:
as §1, with “The uptake reactions were carried out at 37 °C for an appropriate time, and then each slice was rapidly removed from the transport buffer, washed twice in ice-cold transport buffer, blotted on filter paper and weighed. For measurement of radiolabeled compounds, the slices were dissolved in 0.15 ml of 1 N NaOH. Then, the lysate was neutralized with HCl.” left out, “file. […]” for “file.”

Data set [5] deals with Mouse Octn1 (Mus musculus, UniProt Q9Z306). To be noted: Octn1-expressing HEK293 cells, previous report, cited from earlier work.
The target of data set [6] is T3, Octn1 (Mus musculus, UniProt Q9Z306).
T3 construct: between native Octn1 in kidney tissues and transporter-gene transfected cells; from tissue; host or cells: mouse kidney slices (0.3 mm; male ICR mice, or C57BL/6J-backcrossed wild-type and Octn1-/- mice)
T3 sequence (Q9Z306 1-553): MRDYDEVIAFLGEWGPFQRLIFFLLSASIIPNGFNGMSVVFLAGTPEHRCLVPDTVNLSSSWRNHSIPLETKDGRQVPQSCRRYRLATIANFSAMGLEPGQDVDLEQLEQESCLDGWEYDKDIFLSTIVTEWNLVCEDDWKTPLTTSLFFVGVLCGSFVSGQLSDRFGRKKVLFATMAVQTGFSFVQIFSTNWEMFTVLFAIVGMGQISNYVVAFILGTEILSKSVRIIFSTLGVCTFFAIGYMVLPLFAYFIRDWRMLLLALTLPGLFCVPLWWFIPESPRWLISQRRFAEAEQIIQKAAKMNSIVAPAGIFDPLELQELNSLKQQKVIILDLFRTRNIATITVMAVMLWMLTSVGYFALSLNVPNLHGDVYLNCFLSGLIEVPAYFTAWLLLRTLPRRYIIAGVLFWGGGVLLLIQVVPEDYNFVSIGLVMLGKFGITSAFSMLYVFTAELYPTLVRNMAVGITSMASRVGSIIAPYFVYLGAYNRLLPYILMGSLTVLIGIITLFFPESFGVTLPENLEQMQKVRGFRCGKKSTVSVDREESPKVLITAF
Kind of data set: Uptake of [3H]ergothioneine by mice kidney slices. In kind it is in vitro ADME. Particulars: for inhibition of [3H]ergothioneine uptake by kidney slices at low inhibitor concentration: 0.5 mM carnitine, 0.1 mM cimetidine; for effect on Na+-dependent uptake of [3H]ergothioneine into mice kidney slices: Fig. 3A. On the procedure:
as §1
Radioactivity was quantified with a liquid scintillation counter (Aloka, Tokyo, Japan). To calculate kinetic parameters for carrier-mediated uptake of test substrates, uptake rate was fitted to eq. (1) by means of a nonlinear least-squares regression analysis using MULTI program[36]:1 v=Vmax×s/(Km+s) where v, s, K m, and V max are the uptake rate of substrate, the substrate concentration in the medium, the apparent Michaelis-Menten constant, and the maximal uptake rate, respectively.
as §2

Data set [7] deals with Pept1/2. Briefly: Uptake of [3H]Gly-Sar by mice kidney slices. In kind it is in vitro ADME. To be noted: for effect on uptake of [3H]Gly-Sar by mice kidney slices: 5 mM Gly-Leu, 100 μM cephadroxil, 37 °C. As for the experimental part: Uptake studies using mouse kidney slices were carried out as described in a previous report after slight modifications. The slices of whole kidneys were prepared with a microslicer (Zero 1; Dosaka EM, Kyoto, Japan), and the renal pelvis portion was removed. Prepared slices (0.3 mm thick) of whole kidneys from male mice were immediately put in ice-cold oxygenated transport buffer (130 mM NaCl, 4.8 mM KCl, 1.2 mM CaCl2, 1.2 mM MgSO4, 1.2 mM KH2PO4 and 25 mM HEPES, adjusted to pH 7.4). When uptake was conducted in Na^+-free condition, NaCl was replaced with N-methyl-D-glucamine (NMG) in transport buffer. Three or four slices from one mouse, weighing each slice 2 to 10 mg, were randomly selected and then pre-incubated in a 24-well plate with 1.0 ml of oxygenated transport buffer in each well at 37 °C for 5 min. After pre-incubation, the kidney slices were put into transport buffer containing radiolabeled substrates with or without inhibitors to initiate the uptake reaction. The uptake reactions were carried out at 37 °C for an appropriate time, and then each slice was rapidly removed from the transport buffer, washed twice in ice-cold transport buffer, blotted on filter paper and weighed. For measurement of radiolabeled compounds, the slices were dissolved in 0.15 ml of 1 N NaOH. Then, the lysate was neutralized with HCl. The apparent uptake of [^14C]inulin was evaluated in independent experiments (n = 3) to estimate the volume of water adhering to the kidney slices after an incubation. In this study, observed extracellular adhered water space was 0.128 ± 0.004 μL/5 min/mg kidney. Viability of the isolated kidney slices was assessed as described in the supplemental file.
Radioactivity was quantified with a liquid scintillation counter (Aloka, Tokyo, Japan). To calculate kinetic parameters for carrier-mediated uptake of test substrates, uptake rate was fitted to eq. […]

The test system of data set [8] is PEPT1. Also noted: method as in PMID 11004485. Particulars: cited from earlier work.
The test system of data set [9] is PEPT2. Also noted: method as in PMID 15862787. To be noted: cited from earlier work.
In data set [10] the target is T1, Mouse Octn2. Also noted: method as in PMID 11010964. Particulars: cited from earlier work.
Data set [11] concerns Mate1. To be noted: read-out: IC 50 for Mate1; cited from earlier work.
The test system of data set [12] is Oct2. To be noted: read-out: IC 50 for Oct2; cited from earlier work.
Setting [13] is: [3H]ergothioneine 1.0 μM, 3 min.

Where two headings read alike, the source gives them in different places. Where a SMILES comes first, the peptide text is derived from it.

On to `O=C[C@H](O)[C@@H](O)[C@@H](O)[C@H](O)CO` [galactose, D-galactose], for which the “effect on [14C]αMG uptake by kidney slices, inhibitor alone” value in data set [1] (50 nM dapagliflozin, 5 min) was “decreased”.
Take `O=C(CCc1ccc(O)cc1)c1c(O)cc(O)cc1O[C@@H]1O[C@H](CO)[C@@H](O)[C@H](O)[C@H]1O` [Phloridzin]: in [2] (read-out: IC 50, Expression Model (Sglt2)), the IC50 was […].
`COc1ccc(CCN(C)CCCC(C#N)(c2ccc(OC)c(OC)c2)C(C)C)cc1OC` (stereo not shown) [Verapamil]: the IC50 in [3] came out at 94.1 ± 8.9 µM; in data set [4], 363 ± 142 µM.
Turning to `CCOc1ccc(Cc2cc([C@@H]3O[C@H](CO)[C@@H](O)[C@H](O)[C@H]3O)ccc2Cl)cc1` [dapagliflozin], the IC50 in data set [2] (read-out: IC 50 of Sglt2 inhibitor) is […]. In [1] (50 nM dapagliflozin, 5 min), the “effect on [14C]αMG uptake with 30 mM galactose or 1 mM D-glucose simultaneously added” value is reported as “decreased” and the “effect on [14C]αMG uptake by kidney slices, inhibitor alone” value is given as “not affected”. For the same molecule, the “effect on αMG uptake in the presence of 10 mM D-glucose” value in data set [1] (10 mM D-glucose, Sglt1 and Sglt2 saturated) is reported as “no further decrease”.
As for `C[N+](C)(C)[C@@H](Cc1c[nH]c(=S)[nH]1)C(=O)[O-]` [Ergothioneine, ergothioneine], the figures for the “K m of ergothioneine, Expression Model” value in data set [5] and in data set [5] (listed as ergothioneine) were 4.68[22] µM and 4.68 µM, respectively. Also, the “K m in kidney slices relative to K m in Octn1-expressing HEK293 cells” value in [6] (81.5 μM versus 4.68 μM) came to 17 times. For the same molecule, the “uptake in the presence of Na+ versus absence of Na+” value in [6] ([3H]ergothioneine 1.0 μM, pH 7.4, 37 °C, 1-20 min) is reported as “significantly higher”. Further, the “K m of ergothioneine uptake, Mice Kidney Slice” value in [6] (pH 7.4, 37 °C, 3 min, 1-250 μM) stood at 69.8 ± 27.6 µM. The “uptake of [3H]ergothioneine in 1 hr after removal of kidney compared with 25 min” value in [6] (slice viability, pre-incubation pH 7.4, 37 °C) is 69.0 ± 6.6%.
Consider `CC(C)CC(NC(=O)CN)C(=O)O` (stereo not shown) [Gly-Leu, glycyl-leucine], for which the “effect on uptake of [3H]Gly-Sar by mice kidney slices” value in data set [7] is “decreased”.
Consider `CC1=C(C(=O)O)N2C(=O)[C@@H](NC(=O)[C@H](N)c3ccc(O)cc3)[C@H]2SC1` [cephadroxil], for which, in data set [7], the “effect on uptake of [3H]Gly-Sar by mice kidney slices” value is given as “decreased”.
Consider `CN(CC(=O)O)C(=O)CN` [Gly-Sar, glycylsarcosine] (HELM PEPTIDE1{G.[Sar]}$$$$V2.0), for which, in data set [8], the “K m of Gly-Sar, Expression Model (PEPT1)” value was 600 (PEPT1)[37] µM. In [7] (pH 7.4, 37 °C, 5 min, 10-300 μM), the “K m of Gly-Sar uptake, Mice Kidney Slice” value is 161 ± 17 µM. The entries for the “K m of Gly-Sar, Expression Model (PEPT2)” value in [9] and in data set [9] (listed as [^3H]Gly-Sar) were 79.5 (PEPT2)[31] µM and 79.5 µM, respectively.
For the molecule `C[N+](C)(C)CC(O)CC(=O)[O-]` (stereo not shown) [carnitine], the “K m value of carnitine for Octn2” value in data set [10] is listed as 22.1 µM. Also, the “uptake in the presence of Na+ versus absence of Na+” value in [4] ([3H]carnitine 1.3 nM, pH 7.4, 37 °C, 1-20 min) was “significantly higher”. Also, the “inhibition of [3H]ergothioneine uptake by kidney slices at low inhibitor concentration” value in data set [6] is listed as “no significant inhibition”. Further, the “effect on Na+-dependent uptake of [3H]ergothioneine into mice kidney slices” value in data set [6] (setting [13]) is recorded as “significantly reduced”.
With `CN/C(=N/CCSCc1nc[nH]c1C)NC#N` [Cimetidine], the IC50 in [11] was 16.3 µM; in [12] it was 8 µM. The “inhibition of [3H]ergothioneine uptake by kidney slices at low inhibitor concentration” value in data set [6] was “no significant inhibition”. Besides, in [6] (setting [13]), the “effect on Na+-dependent uptake of [3H]ergothioneine into mice kidney slices” value is “significantly reduced”.
